# Test results from ChEMBL document CHEMBL5325462, “Regioselective synthesis and in vitro cytotoxicity evaluation of 3-thiooxindole derivatives: Tubulin polymerization inhibition and apoptosis inducing studies” (Bioorg Med Chem, 2023).
# Activity calls are given as the source filed them. No cut-off for these calls is given here.
# Legend:
# [1] = system: A549; test: Cytotoxicity against human A549 cells assessed as inhibition of cell growth measured after 72 hrs by MTT assay; type: functional, cell-based; settings: A549, 72 h
# [2] = system: MCF7; test: Cytotoxicity against human MCF7 cells assessed as inhibition of cell growth measured after 72 hrs by MTT assay; type: functional, cell-based; settings: MCF7, 72 h
# [3] = system: SK-MEL-28; test: Cytotoxicity against human SK-MEL-28 cells assessed as inhibition of cell growth measured after 72 hrs by MTT assay; type: functional, cell-based; settings: SK-MEL-28, 72 h
# [4] = system: HCT-116; test: Cytotoxicity against human HCT-116 cells assessed as inhibition of cell growth measured after 72 hrs by MTT assay; type: functional, cell-based; settings: HCT-116, 72 h
# [5] = system: BT-474; test: Cytotoxicity against human BT-474 cells assessed as inhibition of cell growth measured after 72 hrs by MTT assay; type: functional, cell-based; settings: BT-474, 72 h
# [6] = Cytotoxicity against rat NRK cells assessed as inhibition of cell growth measured after 72 hrs by MTT assay; type: toxicity, cell-based
# [7] = system: HCT-116; test: Induction of apoptosis in human HCT-116 cells assessed as reduction in cell viability at 3.32 to 13.28 uM measured after 48 hrs by phase contrast microscope; type: functional, cell-based; settings: dose 3.32-13.28 µM
# [8] = system: HCT-116; test: Induction of morphological changes in human HCT-116 cells assessed as cell nucleus shrinkage at 3.32 to 13.28 uM measured after 48 hrs by phase contrast microscope; type: functional, cell-based; settings: dose 3.32-13.28 µM
# [9] = system: HCT-116; test: Induction of morphological changes in human HCT-116 cells assessed as formation of apoptotic bodies incubated for 24 hrs by acridine orange/ethidium bromide staining based fluorescence microscopic analysis; type: functional, cell-based
# [10] = system: HCT-116; test: Induction of morphological changes in human HCT-116 cells assessed as formation of necrotic bodies incubated for 24 hrs by acridine orange/ethidium bromide staining based fluorescence microscopic analysis; type: functional, cell-based
# [11] = system: HCT-116; test: Induction of nuclear morphological changes in human HCT-116 cells assessed as change in nuclear condensation measured after 48 hrs by DAPI-staining based fluorescence microscopic analysis; type: functional, cell-based
# [12] = system: HCT-116; test: Inhibition of colony formation in human HCT-116 cells at 3.32 to 13.28 uM measured after 14 days; type: functional, cell-based; settings: dose 3.32-13.28 µM, time 14.0 day
# [13] = system: HCT-116; test: Inhibition of colony formation in human HCT-116 cells measured after 14 days; type: functional, cell-based; settings: dose 3.32-13.28 µM, time 14.0 day
# [14] = system: Cell membrane; test: Induction of mitochondrial membrane potential loss in human HCT-116 cells assessed as polarized cells at 6.64 uM incubated for 72 hrs by JC-1 staining based flow cytometry analysis (reference value: 99.6 %); type: subcellular
# [15] = system: Cell membrane; test: Induction of mitochondrial membrane potential loss in human HCT-116 cells assessed as depolarized cells at 3.32 uM incubated for 72 hrs by JC-1 staining based flow cytometry analysis (reference value: 0.4 %); type: subcellular
# [16] = system: Cell membrane; test: Induction of mitochondrial membrane potential loss in human HCT-116 cells assessed as depolarized cells at 6.64 uM incubated for 72 hrs by JC-1 staining based flow cytometry analysis (reference value: 0.4 %); type: subcellular
# [17] = system: Cell membrane; test: Induction of mitochondrial membrane potential loss in human HCT-116 cells assessed as depolarized cells at 13.28 uM incubated for 72 hrs by JC-1 staining based flow cytometry analysis (reference value: 0.4 %); type: subcellular
# [18] = system: HCT-116; test: Induction of apoptosis in human HCT-116 cells assessed as viable cells at 3.32 uM incubated for 24 hrs by Annexin V-FITC/PI staining based flow cytometry analysis (Rvb= 99.7%); type: functional; settings: read-out: Activity
# [19] = system: HCT-116; test: Induction of apoptosis in human HCT-116 cells assessed as viable cells at 6.64 uM incubated for 24 hrs by Annexin V-FITC/PI staining based flow cytometry analysis (Rvb= 99.7%); type: functional; settings: read-out: Activity
# [20] = system: HCT-116; test: Induction of apoptosis in human HCT-116 cells assessed as viable cells at 13.28 uM incubated for 24 hrs by Annexin V-FITC/PI staining based flow cytometry analysis (Rvb= 99.7%); type: functional; settings: read-out: Activity
# [21] = system: HCT-116; test: Induction of apoptosis in human HCT-116 cells assessed as early apoptotic cells at 3.32 uM incubated for 24 hrs by Annexin V-FITC/PI staining based flow cytometry analysis (Rvb= 0.2%); type: functional
# [22] = system: HCT-116; test: Induction of apoptosis in human HCT-116 cells assessed as early apoptotic cells at 6.64 uM incubated for 24 hrs by Annexin V-FITC/PI staining based flow cytometry analysis (Rvb= 0.2%); type: functional
# [23] = system: HCT-116; test: Induction of apoptosis in human HCT-116 cells assessed as early apoptotic cells at 13.28 uM incubated for 24 hrs by Annexin V-FITC/PI staining based flow cytometry analysis (Rvb= 0.2%); type: functional
# [24] = system: HCT-116; test: Induction of apoptosis in human HCT-116 cells assessed as late apoptotic cells at 6.64 uM incubated for 24 hrs by Annexin V-FITC/PI staining based flow cytometry analysis (Rvb= 0.1%); type: functional
# [25] = system: HCT-116; test: Induction of apoptosis in human HCT-116 cells assessed as necrotic cells at 6.64 uM incubated for 24 hrs by Annexin V-FITC/PI staining based flow cytometry analysis (Rvb= 0.0%); type: functional
# [26] = system: HCT-116; test: Induction of apoptosis in human HCT-116 cells assessed as necrotic cells at 13.28 uM incubated for 24 hrs by Annexin V-FITC/PI staining based flow cytometry analysis (Rvb= 0.0%); type: functional
# [27] = system: HCT-116; test: Cell cycle arrest in human HCT-116 cells assessed as accumulation of cells in sub-G1 phase at 3.32 uM measured after 48 hrs by PI staining based flow cytometry method (reference value: 4.6%); type: functional
# [28] = system: HCT-116; test: Cell cycle arrest in human HCT-116 cells assessed as accumulation of cells in G0/G1 phase at 3.32 uM measured after 48 hrs by PI staining based flow cytometry method (reference value: 79%); type: functional
# [29] = system: HCT-116; test: Cell cycle arrest in human HCT-116 cells assessed as accumulation of cells in G0/G1 phase at 13.28 uM measured after 48 hrs by PI staining based flow cytometry method (reference value: 79%); type: functional
# [30] = system: HCT-116; test: Cell cycle arrest in human HCT-116 cells assessed as accumulation of cells in S phase at 3.32 uM measured after 48 hrs by PI staining based flow cytometry method (reference value: 8.8%); type: functional
# [31] = system: HCT-116; test: Cell cycle arrest in human HCT-116 cells assessed as accumulation of cells in S phase at 6.64 uM measured after 48 hrs by PI staining based flow cytometry method (reference value: 8.8%); type: functional
# [32] = system: HCT-116; test: Cell cycle arrest in human HCT-116 cells assessed as accumulation of cells in S phase at 13.28 uM measured after 48 hrs by PI staining based flow cytometry method (reference value: 8.8%); type: functional
# [33] = system: HCT-116; test: Cell cycle arrest in human HCT-116 cells assessed as accumulation of cells in G2/M phase at 3.32 uM measured after 48 hrs by PI staining based flow cytometry method (reference value: 6.7%); type: functional
# [34] = system: HCT-116; test: Cell cycle arrest in human HCT-116 cells assessed as accumulation of cells in G2/M phase at 6.64 uM measured after 48 hrs by PI staining based flow cytometry method (reference value: 6.7%); type: functional
# [35] = system: HCT-116; test: Cell cycle arrest in human HCT-116 cells assessed as accumulation of cells in G2/M phase at 13.28 uM measured after 48 hrs by PI staining based flow cytometry method (reference value: 6.7%); type: functional
compound,measurement,setting,value
CC(C)(C)S(=O)(=O)NCC1(Sc2nc3ccccc3[nH]2)C(=O)N(Cc2ccc(Br)cc2)c2ccccc21 (stereo not given),IC50,[1],19.2 µM
same,IC50,[2],12.8 µM
same,IC50,[3],15.3 µM
same,IC50,[4],6.64 µM
same,IC50,[5],14.2 µM
same,IC50 at 72 h,[6],38.4 µM
same,Activity,[7],Active
same,Activity,[8],Active
same,Activity,[9],Dose-Dependent Effect
same,Activity,[10],Active
same,Activity,[11],Dose-Dependent Effect
same,inhibition,[12],Active
same,inhibition,[13],Dose-Dependent Effect
same,Activity,[14],94.1%
same,Activity,[15],3%
same,Activity,[16],5.9%
same,Activity,[17],13.3%
same,viability at 3.32 µM,[18],4.5%
same,viability at 6.64 µM,[19],9.9%
same,viability at 13.28 µM,[20],4.2%
same,Activity,[21],41.8%
same,Activity,[22],21.4%
same,Activity,[23],8.9%
same,Activity,[24],58.4%
same,Activity,[25],10.4%
same,Activity,[26],2.9%
same,Activity,[27],24.4%
same,Activity,[28],52%
same,Activity,[29],41%
same,Activity,[30],11.7%
same,Activity,[31],11.1%
same,Activity,[32],8.6%
same,Activity,[33],11.8%
same,Activity,[34],13.3%
same,Activity,[35],18.4%
